Here are results for one compound from patent US9018219B2, “Fused aminodihydropyrimidine derivative” (Shionogi & Co., Ltd., priority 2010, dated 2015).

In one experiment the target is T1, Recombinant human BACE-1 (Homo sapiens, UniProt P56817).
T1 construct: purchased R&D Systems
The experiment in a line: Assay of BACE1 inhibitory activity. The conditions noted are these: Recombinant human BACE1 7.4 nmol/L, substrate peptide 18 nmol/L, pH 5.0, 30° C. for 3 hours; read-out: IC50 (50% inhibitory concentration against the enzymatic activity). Format: biochemical. The procedure: 48.5 μL of substrate peptide solution (Biotin-XSEVNLDAEFRHDSGC-Eu: X=ε-amino-n-capronic acid, Eu=Europium cryptate) was added to each well of 96-hole half-area plate (a black plate: Costar), and after addition of 0.5 μl of the compound of the present invention (N,N′-dimethylformamide solution) and 1 μl of Recombinant human BACE-1 (R&D Systems), the reaction mixture was incubated at 30° C. for 3 hours. The substrate peptide was synthesized by reacting Cryptate TBPCOOH mono SMP (CIS bio international) with Biotin-XSEVNLDAEFRHDSGC (Peptide Institute, Inc.). The final concentrations of the substrate peptide and Recombinant human BACE1 were adjusted to 18 nmol/L and 7.4 nmol/L, respectively, and the reaction was performed in sodium acetate buffer (50 mmol/L sodium acetate, pH 5.0, 0.008% Triton X-100). After the incubation for reaction, 50 μl of 8.0 μg/ml Streptavidin-XL665 (CIS bio international) dissolved in phosphate buffer (150 mmol/L K2HPO4—KH2PO4, pH 7.0, 0.008% Triton X-100, 0.8 mol/L KF) was added to each well and left stand at 30° C. for 1 hour. After then, fluorescence intensity was measured (excitation wavelength: 320 nm, measuring wavelength: 620 nm and 665 nm) using Wallac 1420 multilabel counter (Perkin Elmer life sciences). Enzymatic activity was determined from counting ratio of each wavelength (10,000×Count 665/Count 620) and 50% inhibitory concentration against the enzymatic activity (IC50) was calculated.

For experiment [1], the system named is Neuroblastoma SH-SY5Y cells (SH/APPwt) with human wild-type β-APP excessively expressed. The experiment in a line: Measurement of β-amyloid (Aβ) production inhibiting effect in cell. Format: cell-based. The conditions noted are these: 24 hours incubation, Amyloid β 1-40 HTRF in culture supernatant, read-out: IC50 (amount needed to inhibit Aβ production by 50%). The procedure:
Neuroblastoma SH-SY5Y cells (SH/APPwt) with human wild-type β-APP excessively expressed therein were prepared at 8×10^5 cells/mL, and 150 μl portions thereof were inoculated into each well of a 96-well culture plate (Falcon). The cells were cultured for 2 hours at 37° C. in a 5% gaseous carbon dioxide incubator. Then, a solution which have been preliminarily prepared by adding and suspending the compound of the present invention (DMSO (dimethyl sulfoxide) solution) so as to be 2 μl/50 μl medium was added to the cell sap. Namely, the final DMSO concentration was 1%, and the amount of the cell culture was 200 μl. After the incubation was performed for 24 hours from the addition of the test compound, 100 μl of the culture supernatant was collected from each fraction. The amount of the Aβ in each fraction was measured.
The Aβ amount was measured as follows. 10 μl of a homogeneous time resolved fluorescence (HTRF) measurement reagent (Amyloid β 1-40 peptide; IBA Molecular Holding, S.A.) and 10 μl of the culture supernatant were put into a 384-well half area microplate (black microplate, Costar) and mixed with each other, and then left standing overnight at 4° C. while the light was shielded. Then, the fluorescence intensity (excitation wavelength: 337 nm, measurement wavelength: 620 nm and 665 nm) was measured with Wallac 1420 multilabel counter (Perkin Elmer life sciences). The Aβ amount was determined from the count rate at each measurement wavelength (10000×Count 665/Count 620), and the amount needed to inhibit Aβ production by 50% (IC50) was calculated from at least six different dosages.

In another experiment the target is T2, CYP2C9 (Homo sapiens, UniProt P11712).
T2 construct: enzyme, pooled human hepatic microsome 0.2 mg protein/mL; from tissue
The experiment is described as follows: CYP inhibition test (CYP2C9). Format: in vitro ADME. The conditions noted are these: pooled human hepatic microsome 0.2 mg protein/mL, 15 minutes, 37° C.; read-out: IC50 CYP2C9 (tolbutamide methyl-hydroxylation). An excerpt: (§1) Using commercially available pooled human hepatic microsome, and employing, as markers, 7-ethoxyresorufin O-deethylation (CYP1A2), tolbutamide methyl-hydroxylation (CYP2C9), mephenyloin 4′-hydroxylation (CYP2C19), dextromethorphan O-demethylation (CYP2D6), and terfenedine hydroxylation (CYP3A4) as typical substrate metabolism reactions of human main five CYP enzyme forms (CYP1A2, 2C9, 2C19, 2D6, 3A4), an inhibitory degree of each metabolite production amount by a compound of the present invention was assessed. […] After the centrifugation at 3000 rpm for 15 minutes, resorufin (CYP1A2 metabolite) in the supernatant was quantified by a multi-label counter and hydroxytolbutamide (CYP2C9 metabolite), 4′-hydroxymephenyloin (CYP2C19 metabolite), dextrorphan (CYP2D6 metabolite), and terfenadine alcohol metabolite (CYP3A4 metabolite) were quantified by LC/MS/MS. Addition of only DMSO being a solvent dissolving a compound to a reaction system was adopted as a control (100%), remaining activity (%) was calculated and IC50 was calculated by reverse presumption by a logistic model using a concentration and an inhibition rate.

A further experiment deals with T3, CYP2C19 (Homo sapiens, UniProt P33261).
T3 construct: enzyme, pooled human hepatic microsome 0.2 mg protein/mL; from tissue
The experiment is described as follows: CYP inhibition test (CYP2C19). The conditions noted are these: pooled human hepatic microsome 0.2 mg protein/mL, 15 minutes, 37° C.; read-out: IC50 CYP2C19 (mephenyloin 4′-hydroxylation). Format: in vitro ADME.
From the text: as §1

T3 sequence (P33261 whole entry): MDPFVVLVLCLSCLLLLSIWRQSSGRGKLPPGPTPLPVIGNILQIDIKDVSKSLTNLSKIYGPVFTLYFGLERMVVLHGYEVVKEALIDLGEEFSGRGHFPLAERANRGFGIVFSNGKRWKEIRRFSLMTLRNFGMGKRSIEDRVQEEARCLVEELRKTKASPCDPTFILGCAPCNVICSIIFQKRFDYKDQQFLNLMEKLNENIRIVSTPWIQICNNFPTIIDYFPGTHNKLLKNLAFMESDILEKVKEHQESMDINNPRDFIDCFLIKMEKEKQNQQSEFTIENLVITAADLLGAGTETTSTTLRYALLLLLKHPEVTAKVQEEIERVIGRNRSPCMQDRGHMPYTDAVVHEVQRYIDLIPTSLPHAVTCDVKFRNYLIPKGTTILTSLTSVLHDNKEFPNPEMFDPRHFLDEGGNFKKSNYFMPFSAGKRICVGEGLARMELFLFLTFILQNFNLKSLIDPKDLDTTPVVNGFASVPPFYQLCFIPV
T1 sequence (P56817 46-501): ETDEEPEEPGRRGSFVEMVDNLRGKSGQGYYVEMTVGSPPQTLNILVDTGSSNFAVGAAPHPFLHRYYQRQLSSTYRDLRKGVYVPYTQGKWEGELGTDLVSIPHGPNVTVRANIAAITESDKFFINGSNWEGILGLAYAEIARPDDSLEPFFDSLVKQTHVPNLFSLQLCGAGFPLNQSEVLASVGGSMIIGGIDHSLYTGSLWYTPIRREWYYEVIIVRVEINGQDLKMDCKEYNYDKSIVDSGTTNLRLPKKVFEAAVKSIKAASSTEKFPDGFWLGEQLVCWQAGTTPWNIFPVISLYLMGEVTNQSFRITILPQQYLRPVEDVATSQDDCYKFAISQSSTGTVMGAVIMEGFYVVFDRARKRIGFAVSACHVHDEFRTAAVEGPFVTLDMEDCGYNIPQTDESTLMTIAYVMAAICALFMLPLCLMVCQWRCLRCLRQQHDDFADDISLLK
T2 sequence (P11712 whole entry): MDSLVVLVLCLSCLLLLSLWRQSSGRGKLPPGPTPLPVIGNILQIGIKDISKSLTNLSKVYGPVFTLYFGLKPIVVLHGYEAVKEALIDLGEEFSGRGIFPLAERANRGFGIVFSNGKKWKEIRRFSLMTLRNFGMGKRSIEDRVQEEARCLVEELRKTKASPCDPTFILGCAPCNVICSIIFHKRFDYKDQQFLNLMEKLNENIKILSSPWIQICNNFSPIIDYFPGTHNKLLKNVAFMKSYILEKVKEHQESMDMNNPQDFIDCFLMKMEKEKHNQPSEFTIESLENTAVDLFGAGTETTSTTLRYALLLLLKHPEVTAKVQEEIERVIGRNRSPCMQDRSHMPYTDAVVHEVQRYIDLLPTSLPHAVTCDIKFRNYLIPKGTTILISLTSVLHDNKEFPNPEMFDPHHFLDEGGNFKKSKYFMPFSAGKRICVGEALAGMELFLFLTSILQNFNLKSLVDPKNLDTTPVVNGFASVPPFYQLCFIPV

In the case of `C[C@@]1(c2cc(-c3cccnc3F)ccc2F)Cc2nccn2C(N)=N1` [Compound I-2], the IC50 at Recombinant human BACE-1 is not above 1 µM; in experiment [1] it was not above 1 µM; at CYP2C9 it was more than 20 µM; on CYP2C19, more than 20 µM.
